Columns and labels:
[1] = test system: MES-SA/Dx5 MDR uterine sarcoma cells; test: MTT antiproliferative assay, MDR MES-SA/Dx5; type: cell-based, human; conditions: Homo sapiens, MES-SA/Dx5; 48 h treatment, MTT, ± SD; MDR line; read-out: GI50 in vitro, MES-SA/Dx5
Method: Compared with the intrinsic drug resistance, as described above for such cancers as glioblastoma and melanoma, a large variety of tumors can also develop resistance to anticancer drugs resulting in MDR as explained previously. To assess whether the hydroxamates can overcome this resistance mechanism, selected hydroxamates were tested against MDR cells (Table 4). The MDR uterine sarcoma cell line MES-SA/Dx5 was utilized for this experiment. This cell line was established from the parent uterine sarcoma MES-SA, grown in the presence of increasing concentrations of doxorubicin and known to be resistant to a number of P-gp substrates.
Human cancer cell lines were obtained from the American Type Culture Collection (ATCC, Manassas, Va., USA), the European Collection of Cell Culture (ECACC, Salisbury, UK) and the Deutsche Sammlung von Mikroorganismen and Zellkulturen (DSMZ, Braunschweig, Germany). Human cervical adenocarcinoma HeLa cells were cultured in DMEM supplemented with 10% fetal bovine serum (FBS). Human mammary carcinoma MCF-7 cells were cultured in RPMI supplemented with 10% FBS. The U87 cells (ATCC HTB-14) were cultured in DMEM culture medium, while the A549 cells (DSMZ ACC107) were cultured in RPMI culture medium supplemented with 10% heat-inactivated FBS. The glioblastoma multiforme Hs683 (ATCC HTB-138) and the T98G (ATCC CRL-1690) cell lines were cultivated in DMEM supplemented with 10% FBS. The Human uterine sarcoma MES-SA and MES-SA/Dx5 cells were cultured in RPMI-1640 medium supplemented with 10% FBS with MES SA/Dx5 maintained in the presence of 500 nM Doxorubicin (Sigma). SKMEL-28 cells (ATCC HTB72) and U373 glioblastoma cells (ECACC 08061901) were cultured in RPMI culture medium supplemented with 10% heat-inactivated FBS. Cell culture media were supplemented with 4 mM glutamine (Lonza code BE17-605E), 100 μg/mL gentamicin (Lonza code 17-5182), and penicillin-streptomycin (200 units/ml and 200 μg/ml) (Lonza code 17-602E). Neurosphere culture GBM 031810 was established using known methods and maintained in Neurobasal medium (Invitrogen Carlsbad, Calif.) with B27 supplement (20 ul/ml; Invitrogen), Glutamax (10 ul/ml; Invitrogen), fibroblast growth factor-2 (20 ng/ml; Peprotech, Rocky Hill, N.J., USA), epidermal growth factor (20 ng/ml; Peprotech), heparin (32 IE/ml; Sigma Aldrich, St. Louis, Mo.), and penicillin-streptomycin (1×, Invitrogen). Growth factors and heparin were renewed twice weekly. All cell lines were cultured in T25 flasks, maintained and grown at 37° C., 95% humidity, 5% CO2.
Antiproliferative properties of the synthesized compounds were evaluated by the MTT assay. All compounds were dissolved in DMSO at a concentration of either 100 mM or 50 mM prior to cell treatment. The cells were trypsinized and seeded at 4×10^3 cells per well into 96-well plates. The cells were grown for 24 h, treated with compounds at concentrations ranging from 0.001 to 100 μM and incubated for 48 h in 200 μL media. 20 μL of MTT reagent in serum free medium (5 mg/mL) was added to each well and incubated further for 2 h. Media was removed and the resulting formazan crystals were re-solubilized in 200 μL of DMSO. A490 was measured using a Molecular Devices Thermomax plate reader. The experiments were performed in quadruplicate and repeated at least twice for each compound per cell line. Cells treated with 0.1% DMSO were used as a negative control; 1 μM phenyl arsine oxide (PAO) was used as a positive control.
Selection of the MES-SA/Dx5 cell line was done according to W. G. Harker and B. I. Sikic, Cancer Res. 1985, p. 45, 4091. The cells were split and allowed to adhere overnight. […] The cells were maintained at this DOX concentration until their growth rate reached that of the untreated cells.

[2] = test system: U87 glioma cells; test: Redifferentiation of U87 cells to an astrocytic phenotype; type: cell-based, human; conditions: GI50 concentration (7 μM, 33-day treatment, FIG. 5C)
Method: Although such redifferentiation processes are known, there are only a few small molecule agents reported to induce these epigenetic transformations.
U87 cells were plated at a density of 5×10^4 cells per well in 24-well plate in DMEM supplemented with 10% FBS. The following day, the cells in each well were re-fed with 1 mL of fresh DMEM/10% FBS, and treated with 3aafa to a final concentration between 15 and 5 μM. Cells were placed into the CO2 incubator and media was not replaced for the duration of the experiment.

**Q.** With `O=C(NO)C(c1ccccc1)c1c(-c2ccc3ccccc3c2)[nH]c2ccccc12` (centres unmarked) [Compound 3aafa] as the compound, how does the GI50 [1] read?
**A.** 4 ± 1.1 µM

**Q.** And the “phenotypic morphological changes of U87 cells” value [2]?
**A.** ceased to replicate and appeared to undergo redifferentiation to a non-malignant state resembling an astrocytic phenotype

— patent US9206124B2, “Treatment of drug-resistant cancer with 2-aryl-2-(3-indolyl) acetohydroxamates” (New Mexico Technical Research Foundation, priority 2013, dated 2015)
